Data: patent publication US20230365537A1, “POLO LIKE KINASE 4 INHIBITORS” (ORIC Pharmaceuticals, Inc., priority 2021, published 2023)

Assays:
[1] = target: human recombinant PLK4 (Homo sapiens (Human), UniProt O00444); test: PLK4 Biochemical Assay (ADP-Glo); settings: 0.5 nM PLK4, 8.0 µM ATP, 4.7 µM MBP, 6 hours at RT
Description: (§1) Activity of human recombinant PLK4 (ThermoFisher, cat #PV6396) was measured by quantification of adenosine diphosphate (ADP) using the ADP-Glo Kinase Assay Kit (Promega, cat #V9102). […] 5 µL of 1.0 nM PLK4 protein in assay buffer (50 mM HEPES, pH 7.5, 0.01% Brij-35, 0.01% BSA, 10 mM MgCl2, 1 mM EGTA, 1 mM DTT) was added to the plates. Test compounds and PLK4 were incubated for 15 minutes at room temperature (RT). […] Reactions were stopped and the remaining ATP depleted by adding 10 µL of ADP-Glo reagent (Promega, cat#V912B) and incubating for 40 minutes at RT. The simultaneous conversion of the remaining ADP to ATP and measurement of the newly synthesized ATP was achieved by addition of 20 µL Kinase Detection reagent (Promega, cat #V914B), incubation for 30 min at RT, and luminescence detection using the EnVision plate reader (PerkinElmer). […] The IC50 values reported in Table 2 were determined using four parameter non-linear regression curve fit.

[2] = target: human recombinant Aurora A (Homo sapiens (Human), UniProt O14965); test: Aurora A Kinase Biochemical Assay (ADP-Glo); settings: ratio of Aurora A IC50 to PLK4 IC50 (selectivity)
Description: as §1, with “Aurora A” for “PLK4”, “#PR5935A)” for “#PV6396)”, “5.0” for “1.0”, “Aurora A” for “PLK4 protein”, “10uL” for “10 µL”

[3] = target: human recombinant Aurora B (Homo sapiens (Human), UniProt Q96GD4); test: Aurora B Kinase Biochemical Assay (ADP-Glo); settings: ratio of Aurora B IC50 to PLK4 IC50 (selectivity)
Description: as §1, with “Aurora B” for “PLK4”, “#PR9210B)” for “#PV6396)”, “20” for “1.0”, “Aurora B” for “PLK4 protein”, “10uL” for “10 µL”

Sequence of human recombinant Aurora A (O14965 whole entry): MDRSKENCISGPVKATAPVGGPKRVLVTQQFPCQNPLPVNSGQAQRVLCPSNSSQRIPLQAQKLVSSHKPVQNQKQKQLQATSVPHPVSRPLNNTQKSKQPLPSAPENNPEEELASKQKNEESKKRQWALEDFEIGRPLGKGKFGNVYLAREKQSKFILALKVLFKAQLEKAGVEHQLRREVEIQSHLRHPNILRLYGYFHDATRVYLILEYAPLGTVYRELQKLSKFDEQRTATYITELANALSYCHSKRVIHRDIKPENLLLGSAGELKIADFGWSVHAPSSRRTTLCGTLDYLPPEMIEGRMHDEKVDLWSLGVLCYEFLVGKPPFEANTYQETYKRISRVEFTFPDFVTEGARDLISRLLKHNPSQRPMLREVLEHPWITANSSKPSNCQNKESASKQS
Sequence of human recombinant PLK4 (O00444 whole entry): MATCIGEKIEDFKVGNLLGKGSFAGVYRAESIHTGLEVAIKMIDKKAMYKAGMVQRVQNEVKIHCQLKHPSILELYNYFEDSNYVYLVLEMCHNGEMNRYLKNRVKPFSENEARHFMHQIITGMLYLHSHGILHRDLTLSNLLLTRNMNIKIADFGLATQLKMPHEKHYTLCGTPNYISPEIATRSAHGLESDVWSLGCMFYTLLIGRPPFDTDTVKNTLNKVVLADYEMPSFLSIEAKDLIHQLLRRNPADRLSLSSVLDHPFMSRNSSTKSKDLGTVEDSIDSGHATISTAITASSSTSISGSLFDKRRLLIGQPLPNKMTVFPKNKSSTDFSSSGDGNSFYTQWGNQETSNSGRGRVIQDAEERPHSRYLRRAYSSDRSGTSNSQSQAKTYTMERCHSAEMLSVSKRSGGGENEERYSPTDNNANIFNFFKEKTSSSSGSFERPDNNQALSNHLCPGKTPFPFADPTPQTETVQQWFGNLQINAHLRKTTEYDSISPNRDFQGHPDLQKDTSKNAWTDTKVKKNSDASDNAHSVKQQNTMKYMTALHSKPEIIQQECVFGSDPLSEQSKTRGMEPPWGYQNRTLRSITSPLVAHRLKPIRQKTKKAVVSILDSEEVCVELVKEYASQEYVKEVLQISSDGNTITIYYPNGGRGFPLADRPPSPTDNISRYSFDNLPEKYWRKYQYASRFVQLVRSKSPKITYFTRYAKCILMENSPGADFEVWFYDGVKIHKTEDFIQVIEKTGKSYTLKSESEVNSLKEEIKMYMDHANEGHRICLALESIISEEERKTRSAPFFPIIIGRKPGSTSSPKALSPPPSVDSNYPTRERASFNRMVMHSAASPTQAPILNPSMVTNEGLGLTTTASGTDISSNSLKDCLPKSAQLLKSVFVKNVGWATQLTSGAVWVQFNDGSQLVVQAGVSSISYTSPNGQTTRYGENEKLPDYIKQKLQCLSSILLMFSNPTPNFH
Sequence of human recombinant Aurora B (Q96GD4 whole entry): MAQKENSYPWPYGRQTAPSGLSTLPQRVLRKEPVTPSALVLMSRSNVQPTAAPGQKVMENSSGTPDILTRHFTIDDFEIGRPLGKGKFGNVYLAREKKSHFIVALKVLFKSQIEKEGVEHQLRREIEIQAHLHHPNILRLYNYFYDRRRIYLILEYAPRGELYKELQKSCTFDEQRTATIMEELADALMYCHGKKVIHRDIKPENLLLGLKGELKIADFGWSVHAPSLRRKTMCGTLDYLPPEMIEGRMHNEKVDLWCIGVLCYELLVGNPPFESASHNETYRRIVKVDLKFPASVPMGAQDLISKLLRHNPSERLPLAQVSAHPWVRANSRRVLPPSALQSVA

Compound	IC50 [1] [nM]	[Aurora A IC50 (nM)]/[PLK4 IC50 (nM)] [2]	[Aurora B IC50 (nM)]/[PLK4 IC50 (nM)] [3]
CCOc1cncnc1Nc1n[nH]c2cc([C@@H]3C[C@@]34C(=O)Nc3ccc(OC)cc34)ccc12 [Example 5, (1R,2S)-2-[3-[(5-ethoxypyrimidin-4-yl)amino]-1H-indazol-6-yl]-5′-methoxy-spiro[cyclopropane-1,3′-indoline]-2′-one]	2.18	–	–
COc1cnc(C)nc1Nc1n[nH]c2cc([C@@H]3C[C@@]34C(=O)Nc3ccc(C(F)(F)F)cc34)ccc12 [Example 137, (1R,2S)-2-{3-[(5-methoxy-2-methylpyrimidin-4-yl)amino]-1H-indazol-6-yl}-5′-(trifluoromethyl)spiro[cyclopropane-1,3′-indol]-2′(1′H)-one]	97.2	62	72
COc1ccc2c(c1)[C@]1(C[C@H]1c1ccc3c(Nc4cccc5c4OCC5O)n[nH]c3c1)C(=O)N2 (stereo in doubt) [Example 27, 2-{3-[(3-hydroxy-2,3-dihydro-1-benzofuran-7-yl)amino]-1H-indazol-6-yl)-5′-methoxyspiro[cyclopropane-1,3′-indol]-2′(1′H)-one]	2.08	–	–
COc1ccc2c(c1)[C@]1(C[C@H]1c1ccc3c(Nc4nn(C)cc4OC)n[nH]c3c1)C(=O)N2 [Example 79, (1R,2S)-5′-methoxy-2-{3-[(4-methoxy-1-methyl-1H-pyrazol-3-yl)amino]-1H-indazol-6-yl}spiro[cyclopropane-1,3′-indol]-2′(rH)-one]	91.9	210.5378	6.986
COc1ccc2c(c1)[C@]1(C[C@H]1c1ccc3c(Nc4nccc5c4OCC5)n[nH]c3c1)C(=O)N2 [Example 32, (1R,2S)-2-{3-[(2,3-dihydrofuro[2,3-c]pyridin-7-yl)amino]-1H-indazol-6-yl}-5′-methoxyspiro[cyclopropane-1,3′-indol]-2′(1′H)-one]	3.94	911.8842	17.5546
COc1ccc2c(c1)[C@]1(C[C@H]1c1ccc3c(Nc4nnccc4OC)n[nH]c3c1)C(=O)N2 [Example 90, (1R,2S)-5′-methoxy-2-{3-[(4-methozypyridazin-3-yl)amino]-1H-indazol-6-yl}spiro[cyclopropane-1,3′-indol]-2′(1′H)-one]	17.8	1505.334	44.33
COc1ccc2c(c1)[C@]1(C[C@H]1c1ccc3c(Nc4ncnc(N5CCCOCC5)c4OC)n[nH]c3c1)C(=O)N2 [Example 44, (1R,2S)-5′-methoxy-2-(3-{[5-methoxy-6-(1,4-oxazepan-4-yl)pyrimidin-4-yl]amino}-1H-indazol-6-yl)spiro[cyclopropane-1,3′-indol]-2′(1′H)-one]	20.7	1269.119	45.11
COc1ccc2c(c1)[C@]1(C[C@H]1c1ccc3c(Nc4c(C)nn(C)c4C)n[nH]c3c1)C(=O)N2 [Example 21, (1R,2S)-5′-methoxy-2-{3-[(1,3,5-trimethyl-1H-pyrazol-4-yl)amino]-1H-indazol-6-yl)spiro[cyclopropane-1,3′-indol]-2′(1′H)-one]	41.7	–	–
COc1ccc2c(c1)[C@]1(C[C@H]1c1ccc3c(Nc4ncncc4Cl)n[nH]c3c1)C(=O)N2 (racemic) [Example 3, racemic-2-{3-[(5-Chloropyrimidin-4-yl)amino]-1H-indazol-6-yl}-5′-methoxyspiro[cydopropane-13′-indol]-2′(1′H)-one]	9.95	–	–
COc1ccc2c(c1)[C@]1(C[C@H]1c1ccc3c(Nc4ncncc4Cl)n[nH]c3c1)C(=O)N2 [Example 7]	4.56	693.5732	47.27
COc1ccc2c(c1)[C@]1(C[C@H]1c1ccc3c(Nc4cc(OC)ncn4)n[nH]c3c1)C(=O)N2 [Example 14, (1R,2S)-5′-methoxy-2-{3-[(6-methoxypyrimidin-4-yl)amino]-1H-indazol-6-yl}spiro[cyclopropane-1,3′-indol]-2′(1′H)-one]	36	74.16	3.866
COc1ccc2c(c1)[C@]1(C[C@H]1c1ccc3c(Nc4cc(N5CCC5)ncn4)n[nH]c3c1)C(=O)N2 [Example 45, (1R,2S)-2-(3-{[6-(azetidin-1-yl)pyrimidin-4-yl]amino}-1H-indazol-6-yl)-5′-methoxyspiro[cyclopropane-1,3′-indol]-2′(1′H)-one]	15.5	137.8309	4.603
COc1ccc2c(c1)[C@]1(C[C@H]1c1ccc3c(Nc4nccc5c4OC[C@H]5CO)n[nH]c3c1)C(=O)N2 (single isomer, unassigned) [Example 34]	3.21	893.3126	19.96
COc1ccc2c(c1)[C@]1(C[C@H]1c1ccc3c(Nc4ncncc4C4CC4)n[nH]c3c1)C(=O)N2 [Example 6, (1R,2S)-2-{3-[(5-cyclopropylpyrimidin-4-yl)amino]-1H-indazol-6-yl}-5′-methoxyspiro[cyclopropane-1,3′-indol]-2′(1′H)-one]	18.2	–	–
COc1ccc2c(c1)[C@]1(C[C@H]1c1ccc3c(Nc4ncncc4OC)n[nH]c3c1)C(=O)N2 (racemic) [Example 1, racemic-5′-Methoxy-2-{3-[(5-methoxypyrimidin-4-yl)amino]-1H-indazol-6-yl}spiro[cyclopropane-1,3′-indol]-2′(1′H)-one]	3.5	–	–
COc1ccc2c(c1)[C@]1(C[C@H]1c1ccc3c(Nc4cccc5c4OC[C@@H]5O)n[nH]c3c1)C(=O)N2 [Example 29, (1R,2S)-2-(3-{[(3R)-3-hydroxy-2,3-dihydro-1-benzofuran-7-yl]amino)-1H-indazol-6-yl)-5′-methoxyspiro[cyclopropane-1,3′-indol]-2′(1′H)-one]	5.97	–	–
COc1ccc2c(c1)[C@]1(C[C@H]1c1ccc3c(Nc4ccncc4OC)n[nH]c3c1)C(=O)N2 [Example 19, (1R,2S)-5′-methoxy-2-{3-[(3-methoxypyridin-4-yl)amino]-1H-indazol-6-yl}spiro[cyclopropane-1,3′-indol]-2′(1′H)-one]	24.8	–	–
COc1ccc2c(c1)[C@]1(C[C@H]1c1ccc3c(Nc4ncncc4C(F)(F)F)n[nH]c3c1)C(=O)N2 [Example 22, (1R,2S)-5′-methoxy-2-(3-{[5-(trifluoromethyl)pyrimidin-4-yl]amino}-1H-indazol-6-yl)spiro[cyclopropane-1,3′-indol]-2′(1′H)-one]	39.8	–	–
COc1ccc2c(c1)[C@]1(C[C@H]1c1ccc3c(Nc4cccc5c4OC[C@H]5O)n[nH]c3c1)C(=O)N2 (stereo in doubt) [Example 28]	0.375	–	–
COc1ccc2c(c1)[C@]1(C[C@H]1c1ccc3c(Nc4cccc5ccoc45)n[nH]c3c1)C(=O)N2 [Example 26]	3.85	–	–
COc1ccc2c(c1)[C@]1(C[C@H]1c1ccc3c(Nc4cnccc4OC)n[nH]c3c1)C(=O)N2 [Example 18]	22.9	–	–
COc1ccc2c(c1)[C@]1(C[C@H]1c1ccc3c(Nc4cccnc4OC)n[nH]c3c1)C(=O)N2 [Example 24]	2.25	–	–
COc1ccc2c(c1)[C@]1(C[C@H]1c1ccc3c(Nc4ncnc5c4CCC5)n[nH]c3c1)C(=O)N2 [Example 15, (1R,2S)-2-{3-[(6,7-dihydro-5H-cyclopenta[d]pyrimidin-4-yl)amino]-1H-indazol-6-yl}-5′-methoxyspiro[cyclopropane-1,3′-indol]-2′(1′H)-one]	45.7	–	–
